Results reported in ChEMBL document CHEMBL4130349, “Discovery and structure-activity relationship studies of 2-benzylidene-2,3-dihydro-1H-inden-1-one and benzofuran-3(2H)-one derivatives as a novel class of potential therapeutics for inflammatory bowel disease” (Eur J Med Chem, 2017).
pIC50: −log10 of the molar value. The source made the active and inactive calls. No cut-off for these calls is given here.

How the values were obtained:
[1] = test system: HT-29; test: Inhibition of TNF-alpha-induced ICAM-1 expression in human HT-29 cells at 10 uM preincubated for 1 hr followed by TNF-alpha challenge measured after 3 hrs by Western blot analysis; format: functional, cell-based
[2] = test system: HT-29; test: Inhibition of TNF-alpha-induced ROS production in human HT-29 cells at 10 uM preincubated for 1 hr followed by TNF-alpha challenge measured after 30 mins by DCF-DA dye-based fluorescence microscopy; format: functional, cell-based
[3] = test system: HT-29; test: Inhibition of TNF-alpha-induced MCP-1 expression in human HT-29 cells at 10 uM preincubated for 1 hr followed by TNF-alpha challenge measured after 3 hrs by Western blot analysis; format: functional, cell-based
[4] = test system: HT-29; test: Inhibition of TNF-alpha-induced adhesion of BCECF-labeled human U937 cells to human HT-29 cells at 10 uM preincubated for 1 hr followed by TNF-alpha challenge measured after 3 hrs by fluorescence microscopic method relative to control; format: functional
[5] = test system: HT-29; test: Inhibition of TNF-alpha-induced NFkappa-B transcriptional activity in human HT-29 cells at 10 uM preincubated for 1 hr followed by TNF-alpha challenge measured after 3 hrs by dual luciferase reporter gene assay; format: functional, cell-based
[6] = test system: HT-29; test: Inhibition of TNF-alpha-induced adhesion of BCECF-labeled human U937 cells to human HT-29 cells preincubated for 1 hr followed by TNF-alpha challenge measured after 3 hrs by fluorescence microscopic method; format: functional, cell-based
[7] = test system: HT-29; test: Inhibition of TNF-alpha-induced adhesion of BCECF-labeled human U937 cells to human HT-29 cells at […] preincubated for 1 hr followed by TNF-alpha challenge measured after 3 hrs by fluorescence microscopic method relative to control; format: functional
[8] = test system: HT-29; test: Inhibition of LPS-induced TNF-alpha expression in human HT-29 cells at […] preincubated for 1 hr followed by TNF-alpha challenge measured after 3 hrs by Western blot method; format: functional, cell-based
[9] = test system: HT-29; test: Inhibition of LPS-induced TNF-alpha expression in human HT-29 cells at 10 uM preincubated for 1 hr followed by TNF-alpha challenge measured after 3 hrs by Western blot method; format: functional, cell-based

Structure (SMILES) | inhibition at 10 µM [4] | also measured
O=C1/C(=C/c2ccccc2O)Cc2ccc(O)cc21 | 71.3% | inhibition [1]: Active; inhibition [2]: Active; inhibition [3]: Active; inhibition [5]: Active; pIC50 [6]: 5.64
O=C1/C(=C/c2cccnc2)Cc2ccccc21 | 28.7% | 
O=C1/C(=C/c2ccc(Cl)s2)Cc2ccccc21 | 5.7% | 
O=C1/C(=C/c2cccc(Cl)c2)Oc2ccccc21 | 40% | 
O=C1/C(=C/c2cccc(Cl)c2)Oc2cc(O)ccc21 | 45.9% | 
O=C1/C(=C/c2ccccc2F)Cc2ccccc21 | 27.8% | 
COc1ccc(/C=C2\Cc3cccc(O)c3C2=O)cc1O | 35% | 
O=C1/C(=C/c2ccc(Cl)s2)Oc2ccccc21 | 75.1% | inhibition [1]: Active; inhibition [2]: Active; inhibition [3]: Active; inhibition [5]: Active; pIC50 [6]: 5.43
O=C1/C(=C/c2cccc([N+](=O)[O-])c2)Cc2ccccc21 | 46.5% | 
O=C1/C(=C/c2ccccc2Cl)Cc2ccccc21 | -4.3% | 
O=C1/C(=C/c2ccc(OC(F)(F)F)cc2)Cc2ccccc21 | 34.5% | 
O=C1/C(=C/c2ccc(Cl)cc2)Cc2cc(O)ccc21 | 0.2% | 
O=C1/C(=C/c2ccc(-c3ccccc3)cc2)Cc2ccccc21 | 62.6% | 
O=C1/C(=C/c2ccc(Cl)cc2)Oc2cc(O)ccc21 [6-HYDROXY-4'-CHLORO AURONE] | 49% | 
O=C1/C(=C/c2cccc(Cl)c2)Cc2ccccc21 | -2.1% | 
O=C1/C(=C/c2cccc(OC(F)(F)F)c2)Cc2ccccc21 | 9.9% | 
O=C1/C(=C/c2ccccc2C(F)(F)F)Cc2ccccc21 | 42.8% | 
O=C1/C(=C/c2ccccc2O)Oc2cc(O)ccc21 | 53.5% | 
O=C1/C(=C/c2ccccc2O)Cc2cc(O)ccc21 | 32.1% | 
O=C1/C(=C/c2ccc(O)cc2)Cc2ccccc21 | 72.6% | inhibition [1]: Active; inhibition [2]: Active; inhibition [3]: Active; inhibition [5]: Active; pIC50 [6]: 5.82
O=C1/C(=C/c2ccccc2Cl)Oc2ccccc21 | 50.7% | 
Nc1ccc(O)c(C(=O)O)c1 [MESALAMINE] | 3.7% | inhibition [7]: 52.8%; inhibition [8]: Active; inhibition [9]: inactive; pIC50 [6]: 1.69
O=C1/C(=C/c2cccc(C(F)(F)F)c2)Cc2ccccc21 | 54.9% | 
O=C1/C(=C/c2cccc(O)c2)Oc2cc(O)ccc21 | 75.7% | inhibition [1]: Active; inhibition [2]: Active; inhibition [3]: Active; inhibition [5]: Active; pIC50 [6]: 5.77
O=C1/C(=C/c2cccc(O)c2)Cc2ccccc21 | 43.7% | 
O=C1/C(=C/c2ccccc2O)Cc2ccccc21 | 63.1% | 
O=C1/C(=C/c2ccc(O)cc2)Cc2c(O)cccc21 | -1.7% | 
COc1ccc(/C=C2\Cc3cc(O)ccc3C2=O)cc1O | -2.5% | 
O=C1/C(=C/c2ccc(O)cc2)Oc2ccccc21 | 63.6% | 
COc1ccc(/C=C2\Cc3ccc(O)cc3C2=O)cc1O | 12% | 
